{"source": "patent US20070071677A1", "about": "(priority 2003, published 2007)", "note": "Ends that are not written are not given here.", "data": [{"tested_on": "cell lines described in Example 3 (293T, HeLa, CT26, MCF-7)", "experiment": "Cytotoxicity of LMWP peptides, MTT colorimetric assay", "format": "cell-based, human, murine", "conditions": "FIG. 5; TAT at 5.0 mM and 10.0 mM", "description": "Cytotoxicity of the LMWP peptides and TDSP5-gelonin conjugates were examined using the cell lines described in Example 3. In brief, cells grown to 75% confluency were incubated with various concentrations of LMWP peptides, TAT peptide, TDSP5-gelonin conjugate, or TAT-gelonin conjugates. Cell proliferation was measured over 3 days, and cytotoxicity was determined using a colorimetric assay, which was performed by removing the cell culture medium and replacing it with PBS containing 5 mg/ml of 3-(4,5-dimethylthiazol-2-yl)-2,5-diphenyltetrazolium bromide (MTT). The absorbance of the cell culture medium following MTT addition was measured at 540 nm, and the survival ratio was determined by the ratio of the absorbance of sample-treated cells to that of control cells.", "values": [{"substance": "ASRRRRRGGRRRR [TDSP4]", "cell cytotoxicity (in words)": "little or no toxicity"}, {"substance": "PRRRRR [TDSP2]", "cell cytotoxicity (in words)": "little or no toxicity"}, {"substance": "PRRRRSSRRP [TDSP3]", "cell cytotoxicity (in words)": "little or no toxicity"}, {"substance": "VSRRRRRRGGRRRR [TDSP5]", "cell cytotoxicity (in words)": "little or no toxicity"}]}]}
